# Laboratory results published in ChEMBL document CHEMBL1136842, “5-Nitrofuran-2-yl derivatives: synthesis and inhibitory activities against growing and dormant mycobacterium species” (Bioorg Med Chem Lett, 2009).
# Tested on: Mycobacterium tuberculosis variant microti
# Assay: Antimycobacterial activity against Mycobacterium microti MTCC 1727 by agar dilution method
# Assay type: functional
row,SMILES,MIC
1,O=[N+]([O-])c1ccc(/C=N/NC(=S)Nc2ccccc2Br)o1,67.1 µM
2,Cc1cccc(C)c1NC(=S)N/N=C/c1ccc([N+](=O)[O-])o1,78.5 µM
3,O=[N+]([O-])c1ccc(/C=N/NC(=S)Nc2ccc(Cl)cc2)o1,38.4 µM
4,O=[N+]([O-])c1ccc(/C=N/NC(=S)Nc2ccc(Cl)cn2)o1,38.3 µM
5,Cc1ccc(C)c(NC(=S)N/N=C/c2ccc([N+](=O)[O-])o2)c1,157 µM
6,O=[N+]([O-])c1ccc(/C=N/NC(=S)Nc2ccccc2)o1,86.1 µM
7,Cc1cc(C)nc(NC(=S)N/N=C/c2ccc([N+](=O)[O-])o2)c1,39.1 µM
8,CCc1cccc(CC)c1NC(=S)N/N=C/c1ccc([N+](=O)[O-])o1,72.1 µM
9,Cc1ccc(NC(=S)N/N=C/c2ccc([N+](=O)[O-])o2)c(C)c1,78.5 µM
10,Cc1ccc(NC(=S)N/N=C/c2ccc([N+](=O)[O-])o2)cc1,20.5 µM
11,O=C(O)c1cn(C2CC2)c2cc(N3CCNCC3)c(F)cc2c1=O [CIPROFLOXACIN],2.35 µM
12,Cc1cccnc1NC(=S)N/N=C/c1ccc([N+](=O)[O-])o1,10.2 µM
13,Cc1ccnc(NC(=S)N/N=C/c2ccc([N+](=O)[O-])o2)c1,20.5 µM
14,NNC(=O)c1ccncc1 [ISONIAZID],22.8 µM
15,COc1ccc(NC(=S)N/N=C/c2ccc([N+](=O)[O-])o2)cc1,78 µM
16,NS(=O)(=O)c1ccc(NC(=S)N/N=C/c2ccc([N+](=O)[O-])o2)cc1,67.6 µM
17,O=[N+]([O-])c1ccc(/C=N/NC(=S)Nc2ccccn2)o1,48.4 µM
18,CO[C@H]1/C=C/O[C@@]2(C)Oc3c(C)c(O)c4c(O)c(c(/C=N/N5CCN(C)CC5)c(O)c4c3C2=O)NC(=O)/C(C)=C\C=C\[C@H](C)[C@H](O)[C@@H](C)[C@@H](O)[C@@H](C)[C@H](OC(C)=O)[C@@H]1C [RIFAMPIN],30.4 µM
19,O=[N+]([O-])c1ccc(/C=N/NC(=S)Nc2ncc(Br)cc2Br)o1,6.9 µM
20,COc1ccc(NC(=S)N/N=C/c2ccc([N+](=O)[O-])o2)c(OC)c1,17.8 µM
